Earlier results, collected in patent publication US8273706B2, “Isobarically labeled analytes and fragment ions derived therefrom” (DH Technologies Development Pte. Ltd., priority 2004, dated 2012).

Conditions: alcohol (leaving group) whose trifluoroacetate ester forms the active ester of N-methyl piperazine acetic acid

Row | SMILES | pKa
1 | O=[N+]([O-])c1cccc(O)c1 [3-NP, 3-nitrophenol] | 8.33
2 | O=c1c2ccccc2nnn1O [Dhbt, 3-hydroxy-1,2,3-benzotriazine-4(3H)-one] | 7.78
3 | O=C1CCCN1O [NHP, N-hydroxypyrrolidinone] | 9.38
4 | O=C1CCC(=O)N1O [NHS, N-hydroxysuccinimide] | 7.80
5 | Oc1c(Cl)c(Cl)c(Cl)c(Cl)c1Cl [Pcp, pentachlorophenol] | 4.68
